Data on five compounds can be found in ChEMBL document CHEMBL4118096, “Branched Peptides: Acridine and Boronic Acid Derivatives as Antimicrobial Agents” (ACS Med Chem Lett, 2017).

≈ marks a conversion by molar mass, not a printed value. Where a SMILES comes first, the peptide text is derived from it. The star is where a group is joined. Benzoyl(4-B(OH)2) = O=C(c1ccc(B(O)O)cc1)*; Acridin9yl = c1ccc2c(*)c3ccccc3nc2c1

Series [1] deals with Staphylococcus aureus. The series is described as follows: Antimicrobial activity against Staphylococcus aureus ATCC 6538 measured on day 4 by broth microdilution method. Format: functional. Conditions: ATCC 6538, 96 h. For orientation: In broth dilution the organism is exposed to a series of concentrations in liquid medium.
The test system of another series is Escherichia coli. The series is described as follows: Antimicrobial activity against Escherichia coli C ATCC 13706 measured on day 4 by broth microdilution method. It is filed as functional. Conditions: C ATCC 13706, 96 h.
In series [2] the test system is Mycolicibacterium smegmatis. The series is described as follows: Antimicrobial activity against Mycobacterium smegmatis ATCC 607 measured on day 4 by broth microdilution method. It is filed as functional. The following applies: ATCC 607, 96 h.
The test system of series [3] is Candida albicans. The series is described as follows: Antifungal activity against Candida albicans measured on day 4 by broth microdilution method. It is filed as functional. Conditions: 96 h.
Another series relates to Aspergillus niger. The experiment in a line: Antifungal activity against Aspergillus niger measured on day 4 by broth microdilution method. It is filed as functional. Conditions: 96 h.
The subject of series [4] is Staphylococcus aureus. The series is described as follows: Antimicrobial activity against methicillin-resistant Staphylococcus aureus ATCC 43300 measured on day 4 by broth microdilution method. It is filed as functional. Conditions: ATCC 43300, 96 h.
The test system of a further series is U-87 MG. The series is described as follows: Cytotoxicity against human U87 cells assessed as decrease in cell viability at 10 uM after 24 hrs by MTT assay. It is filed as cell-based. The following applies: u-87mg atcc. (Tetrazolium assays rely on reduction of a dye to a coloured formazan, in cell work by metabolically active cells.)
For a further series, the system named is Saccharomyces cerevisiae. The series is described as follows: Induction of membrane lysis activity in Saccharomyces cerevisiae assessed as maltase release at MIC after 60 mins relative to control. Format: functional.
For series [5], the system named is Candida albicans. The series is described as follows: Induction of membrane lysis in Candida albicans assessed as maltase release at MIC after 60 mins relative to control. It is filed as functional.
The test system of series [6] is Candida albicans. The series is described as follows: Antifungal activity against Candida albicans VT1406 in cell suspension after 24 hrs by XXT/PMS dye based assay. It is filed as functional. Conditions: VT1406, 24 h.
The test system of series [7] is Candida albicans. The experiment in a line: Antibiofilm activity against Candida albicans VT1406 after 24 hrs by XXT/PMS dye based assay. It is filed as functional. The following applies: VT1406, 24 h.
The next series has as its system Erythrocyte. The experiment in a line: Hemolytic activity in sheep RBC measured after 15 mins. Conditions: 0.25 h. Format: ADME, cell-based, Ovis aries.
Series [8] can be described thus: Safety index, ratio of EC10 for hemolytic activity in sheep RBC to MIC for Candida albicans. Format: toxicity. Conditions: sheep red blood cells.

In the case of `CC(C)C[C@H](NC(=O)[C@H](CCCCN)NC(=O)[C@H](CCCCN)NC(=O)[C@H](CCCCN)NC(=O)[C@H](CCCCNc1c2ccccc2nc2ccccc12)NC(=O)[C@H](CCCCN)NC(=O)[C@H](CCCCN)NC(=O)[C@@H](N)CCCCNc1c2ccccc2nc2ccccc12)C(=O)N[C@@H](CCCCNC(=O)c1ccc(B(O)O)cc1)C(=O)N[C@@H](Cc1ccc(O)cc1)C(=O)O` (H-K(Acridin9yl)KKK(Acridin9yl)KKKLK(Benzoyl(4-B(OH)2))Y-OH), the MIC in the series with Staphylococcus aureus [1] was determined as 1 µg/mL (≈ 0.549 µM); with Escherichia coli, 4 µg/mL (≈ 2.2 µM); in series [2] it was 16 µg/mL (≈ 8.78 µM); in the series with Candida albicans [3], 8 µg/mL (≈ 4.39 µM); with Aspergillus niger, 32 µg/mL (≈ 17.6 µM); in the series on Staphylococcus aureus [4], 2 µg/mL (≈ 1.1 µM). In the series on U-87 MG, the Activity result is recorded as “Non-Toxic”.

Regarding `NCCCC[C@H](NC(=O)[C@H](CCCCNc1c2ccccc2nc2ccccc12)NC(=O)[C@H](CCCCNc1c2ccccc2nc2ccccc12)NC(=O)[C@H](CCCCN)NC(=O)[C@H](CCCCN)NC(=O)[C@H](CCCCN)NC(=O)[C@H](CCCCN)NC(=O)[C@H](CCCCN)NC(=O)[C@@H](N)CCCCN)C(=O)N[C@@H](Cc1ccc(O)cc1)C(=O)O` (H-KKKKKKK(Acridin9yl)K(Acridin9yl)KY-OH), the MIC against Staphylococcus aureus [1] came out at 1 µg/mL (≈ 0.592 µM); against Escherichia coli it was 8 µg/mL (≈ 4.74 µM); in series [2], 16 µg/mL (≈ 9.47 µM); against Candida albicans [3], 4 µg/mL (≈ 2.37 µM); against Aspergillus niger, 62.5 µg/mL (≈ 37 µM); against Staphylococcus aureus [4] it was 62.5 µg/mL (≈ 37 µM). The Activity result in the series on U-87 MG is listed as “Non-Toxic”.

Regarding `CC(C)C[C@H](NC(=O)[C@H](CCCCN)NC(=O)[C@H](CCCCN)NC(=O)[C@H](CCCCNc1c2ccccc2nc2ccccc12)NC(=O)[C@H](CCCCN)NC(=O)[C@H](CCCCN)NC(=O)[C@H](CCCCNc1c2ccccc2nc2ccccc12)NC(=O)[C@@H](N)CCCCN)C(=O)N[C@@H](CCCCNC(=O)c1ccc(B(O)O)cc1)C(=O)N[C@@H](Cc1ccc(O)cc1)C(=O)O` (H-KK(Acridin9yl)KKK(Acridin9yl)KKLK(Benzoyl(4-B(OH)2))Y-OH), the MIC in the series with Staphylococcus aureus [1] was 8 µg/mL (≈ 4.39 µM); against Escherichia coli, 2 µg/mL (≈ 1.1 µM); in series [2] it was 32 µg/mL (≈ 17.6 µM); in the series with Candida albicans [3], 2 µg/mL (≈ 1.1 µM); in the series on Aspergillus niger, 32 µg/mL (≈ 17.6 µM); in the series with Candida albicans [6] it was 2 µg/mL (≈ 1.1 µM). In addition, the MIC against Candida albicans [7] was found to be 1 µg/mL (≈ 0.549 µM). For the same compound, the Activity is given as 1.4% with Saccharomyces cerevisiae, 1% with Candida albicans [5] and “Non-Toxic” in the series on U-87 MG. Further, the 10% effect concentration (EC10) (usually the concentration needed for an effect of 10%) in the series on Erythrocyte is greater than 250 µg/mL. For the same compound, the selectivity ratio in [8] is greater than 100.

For the compound `CC(C)C[C@H](NC(=O)[C@H](CCCCN)NC(=O)[C@H](CCCCN)NC(=O)[C@H](CCCCN)NC(=O)[C@H](CCCCN)NC(=O)[C@H](CCCCN)NC(=O)[C@H](CCCCN)NC(=O)[C@@H](N)CCCCN)C(=O)N[C@@H](CCCCNc1c2ccccc2nc2ccccc12)C(=O)N[C@@H](Cc1ccc(O)cc1)C(=O)O` (H-KKKKKKKLK(Acridin9yl)Y-OH), the MIC with Staphylococcus aureus [1] was found to be 16 µg/mL (≈ 10.7 µM); against Escherichia coli, 8 µg/mL (≈ 5.34 µM); in series [2], 32 µg/mL (≈ 21.4 µM); in the series on Candida albicans [3] it was 2 µg/mL (≈ 1.34 µM); against Aspergillus niger, 62.5 µg/mL (≈ 41.8 µM); in the series with Candida albicans [6] it was 1 µg/mL (≈ 0.668 µM). In addition, the MIC against Candida albicans [7] stood at 1 µg/mL (≈ 0.668 µM). Also, the Activity in the series on Saccharomyces cerevisiae was 0.7%; in the series on Candida albicans [5], 6%; with U-87 MG, “Non-Toxic”. The compound also gave an EC10 in the series with Erythrocyte greater than 250 µg/mL. The selectivity ratio in [8] was greater than 100.

For the compound `CC(C)C[C@H](NC(=O)[C@H](CCCCNc1c2ccccc2nc2ccccc12)NC(=O)[C@H](CCCCN)NC(=O)[C@H](CCCCN)NC(=O)[C@H](CCCCN)NC(=O)[C@H](CCCCN)NC(=O)[C@H](CCCCN)NC(=O)[C@@H](N)CCCCN)C(=O)N[C@@H](CCCCN)C(=O)N[C@@H](Cc1ccc(O)cc1)C(=O)O` (H-KKKKKKK(Acridin9yl)LKY-OH), the MIC was 16 µg/mL (≈ 10.7 µM) in the series on Staphylococcus aureus [1]; 16 µg/mL (≈ 10.7 µM) in the series on Escherichia coli; 16 µg/mL (≈ 10.7 µM) in [2]; 1 µg/mL (≈ 0.668 µM) with Candida albicans [3]; 62.5 µg/mL (≈ 41.8 µM) in the series with Aspergillus niger; 1 µg/mL (≈ 0.668 µM) against Candida albicans [6]. Further, the MIC against Candida albicans [7] was 62.5 µg/mL (≈ 41.8 µM). Moreover, the Activity in the series on Saccharomyces cerevisiae is given as 0.95%; with Candida albicans [5], 1%; in the series on U-87 MG it was “Non-Toxic”. Also, the EC10 in the series with Erythrocyte is 175 µg/mL (≈ 117 µM). Besides, the selectivity ratio in series [8] was greater than 100.
